Measurements taken from ChEMBL document CHEMBL1201862, “PubChem BioAssay data set” (2004).
Activity calls are given as the source filed them.

What was measured:
[1] = molecular target: T1, Female germline-specific tumor suppressor gld-1 (Caenorhabditis elegans, UniProt Q17339); assay: inhibitors of GLD-1 binding to TGE RNA, dose response, biochemical, fluorescence polarization, C. elegans (AID 2802);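 also: fluorescence polarization of labeled TGE RNA bound by purified gld-1 protein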
T1 sequence (Q17339 whole entry): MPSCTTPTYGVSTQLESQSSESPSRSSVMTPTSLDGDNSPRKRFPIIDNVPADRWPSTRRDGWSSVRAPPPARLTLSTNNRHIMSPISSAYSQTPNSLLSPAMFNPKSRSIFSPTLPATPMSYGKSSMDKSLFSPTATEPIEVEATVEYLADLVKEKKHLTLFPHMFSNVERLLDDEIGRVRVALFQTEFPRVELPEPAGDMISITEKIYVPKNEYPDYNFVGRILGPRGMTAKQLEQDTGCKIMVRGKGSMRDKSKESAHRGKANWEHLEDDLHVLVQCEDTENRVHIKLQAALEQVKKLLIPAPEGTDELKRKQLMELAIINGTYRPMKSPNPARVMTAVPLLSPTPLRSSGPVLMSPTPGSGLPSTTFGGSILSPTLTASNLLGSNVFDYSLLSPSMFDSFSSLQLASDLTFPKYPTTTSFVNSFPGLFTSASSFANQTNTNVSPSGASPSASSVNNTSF

[2] = molecular target: T2, Polyadenylate-binding protein 1 (Homo sapiens, UniProt P11940); assay: PABP1 MLLE–PAM2 interaction inhibitors, dose response, miRNA deadenylation inhibitor project, biochemical, fluorescence polarization, Cy5-PAM2 peptide, secondary (AID 602260); assay type: functional; settings: read-out: IC50_Mean
[3] = molecular target: T2, Polyadenylate-binding protein 1; assay: PABP1 MLLE–PAM2 binding inhibitor potency, dose response, biochemical, fluorescence polarization, FITC-PAM2 peptide (AID 602259); assay type: functional; settings: read-out: IC50_Mean
Protein Rev = molecular target: T3, Protein Rev (Human immunodeficiency virus type 1 group M subtype B (isolate HXB2)(HIV-1), UniProt P04618); assay: inhibitors of Rev binding to RRE RNA, dose response, biochemical, fluorescence polarization, HIV-1 (AID 434976); set-up: species or system Human immunodeficiency virus 1
T3 sequence (P04618 whole entry): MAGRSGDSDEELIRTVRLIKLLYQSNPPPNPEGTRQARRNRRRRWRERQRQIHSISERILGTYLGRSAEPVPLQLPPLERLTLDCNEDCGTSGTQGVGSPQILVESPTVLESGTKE

Beta-galactosidase = Beta-galactosidase (Escherichia coli, UniProt Q8VNN2); assay type: functional
[4] = molecular target: T4, Kappa-type opioid receptor (Homo sapiens, UniProt P41145); assay type: functional
[5] = molecular target: T4, Kappa-type opioid receptor; assay type: functional; remark: listed apart in the source
[6] = molecular target: Heat shock protein HSP 90-alpha (Homo sapiens, UniProt P07900); assay type: functional, organism-based
[7] = molecular target: DNA damage-inducible transcript 3 protein (Mus musculus, UniProt P35639); assay type: functional, Cricetulus griseus
Cytochrome P450 2C9 = Cytochrome P450 2C9 (Homo sapiens, UniProt P11712)
Cytochrome P450 1A2 = molecular target: T5, Cytochrome P450 1A2 (Homo sapiens, UniProt P05177);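 also: PubChem cytochrome P450 panel assay, CYP1A2 panel member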
T5 sequence (P05177 whole entry): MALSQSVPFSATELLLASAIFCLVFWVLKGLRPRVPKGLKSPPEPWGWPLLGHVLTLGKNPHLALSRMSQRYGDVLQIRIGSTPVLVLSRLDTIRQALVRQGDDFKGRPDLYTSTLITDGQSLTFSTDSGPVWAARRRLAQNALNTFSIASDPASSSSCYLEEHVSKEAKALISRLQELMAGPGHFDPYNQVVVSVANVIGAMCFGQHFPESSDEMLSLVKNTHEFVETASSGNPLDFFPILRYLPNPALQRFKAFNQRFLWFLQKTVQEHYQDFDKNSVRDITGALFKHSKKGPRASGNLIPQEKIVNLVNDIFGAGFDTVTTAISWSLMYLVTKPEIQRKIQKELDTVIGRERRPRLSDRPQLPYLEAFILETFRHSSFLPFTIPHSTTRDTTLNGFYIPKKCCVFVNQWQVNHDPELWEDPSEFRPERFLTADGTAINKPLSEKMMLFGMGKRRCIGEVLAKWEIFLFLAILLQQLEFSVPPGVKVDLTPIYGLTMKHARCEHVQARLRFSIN

X-box-binding protein 1 = molecular target: T6, X-box-binding protein 1 (Homo sapiens, UniProt P17861); assay type: functional, Cricetulus griseus;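 also: confirmatory dose-response counter-screen serving a CHOP assay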
T6 sequence (P17861 whole entry): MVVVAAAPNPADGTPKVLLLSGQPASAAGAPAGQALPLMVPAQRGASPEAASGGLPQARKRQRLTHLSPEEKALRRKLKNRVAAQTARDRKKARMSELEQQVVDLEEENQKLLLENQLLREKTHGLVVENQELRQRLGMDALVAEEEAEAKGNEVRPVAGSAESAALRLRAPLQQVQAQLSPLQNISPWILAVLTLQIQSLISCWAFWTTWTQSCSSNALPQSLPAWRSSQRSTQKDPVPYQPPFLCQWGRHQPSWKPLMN

[8] = Luminescence Cell-Based Dose Response HTS to Identify Activators of Luciferase Translation or Activity in H4 […] Cells. [Related pubchem assays: 1829 (Project Summary), 1814 (Primary HTS)]; assay type: functional
H4 = assay: Luminescence Cell-Based Dose Response HTS to Identify Activators of 5'UTR Stem-Loop Driven Prion Protein mRNA Translation in H4 Neuroglioblastoma Cells. [Related pubchem assays: 1829 (Project Summary), 1814 (Primary HTS)]; assay type: functional; settings: Homo sapiens
Hexokinase HKDC1 = molecular target: T7, Hexokinase HKDC1 (Homo sapiens, UniProt Q2TB90); assay: HKDC1 hexokinase inhibitors, dose response, biochemical, W721R variant (AID 504729); assay type: functional
T7 sequence (Q2TB90 whole entry): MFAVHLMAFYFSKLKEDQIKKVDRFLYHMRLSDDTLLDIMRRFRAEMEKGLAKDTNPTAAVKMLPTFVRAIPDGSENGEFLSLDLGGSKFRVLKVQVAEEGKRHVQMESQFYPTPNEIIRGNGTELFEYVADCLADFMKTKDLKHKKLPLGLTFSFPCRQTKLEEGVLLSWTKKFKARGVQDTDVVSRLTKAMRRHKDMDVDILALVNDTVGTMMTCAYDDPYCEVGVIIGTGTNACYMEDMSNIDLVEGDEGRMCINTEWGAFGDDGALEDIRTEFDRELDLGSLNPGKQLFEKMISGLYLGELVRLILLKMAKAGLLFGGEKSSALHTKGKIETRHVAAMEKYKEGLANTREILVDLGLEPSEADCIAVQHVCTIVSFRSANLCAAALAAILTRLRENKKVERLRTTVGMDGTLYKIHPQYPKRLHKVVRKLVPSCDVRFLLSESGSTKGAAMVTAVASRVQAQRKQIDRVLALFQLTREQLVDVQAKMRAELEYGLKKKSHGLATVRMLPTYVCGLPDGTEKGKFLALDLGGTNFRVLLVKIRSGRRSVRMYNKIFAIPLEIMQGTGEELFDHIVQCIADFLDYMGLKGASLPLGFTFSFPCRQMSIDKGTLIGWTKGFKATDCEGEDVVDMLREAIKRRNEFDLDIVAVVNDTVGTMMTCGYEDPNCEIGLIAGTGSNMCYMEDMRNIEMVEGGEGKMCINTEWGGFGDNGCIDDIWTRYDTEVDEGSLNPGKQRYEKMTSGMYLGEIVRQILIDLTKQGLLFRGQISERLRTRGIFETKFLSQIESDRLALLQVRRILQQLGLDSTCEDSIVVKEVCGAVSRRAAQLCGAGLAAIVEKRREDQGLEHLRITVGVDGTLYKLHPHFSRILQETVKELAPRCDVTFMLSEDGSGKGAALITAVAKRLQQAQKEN

[9] = Luminescence Cell-Based Dose Confirmation HTS to Identify Activators of 5'UTR Stem-Loop Driven Alpha-Synuclein mRNA Translation in H4 Neuroglioblastoma Cells. [Related pubchem assays: 1829 (Project Summary), 1814 (Primary HTS)]; assay type: functional
[10] = molecular target: Eukaryotic translation initiation factor 4E (Mus musculus, UniProt P63073); assay: eIF4E–eIF4G protein interaction inhibitors, dose response, biochemical, TR-FRET (AID 855); assay type: functional;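 also: potency for disrupting eIF4E binding to eIF4GI seen as loss of FRET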
[11] = molecular target: E3 ubiquitin-protein ligase Mdm2 (Homo sapiens, UniProt Q00987); assay: enhancers of MDM2-luciferase reporter signal, concentration-effect titration, project on inhibitors of MDM2 ubiquitin ligase, cellular assay, luminescent readout, 384-well plate format (AID 1394); assay type: functional;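 also: MDM2 E3 inhibitors raise luminescence so EC50 is for signal enhancement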
[12] = A Cell Based Secondary Assay To Explore Cytotoxicity of Compounds that Sensitize Mycobacterium Tuberculosis to Beta-Lactam Antibiotics.; assay type: functional
[13] = Luminescence Cell-Based Dose Retest to Confirm Inhibitors of Cancer Stem Cells. [Related pubchem assays (depositor defined):AID2717, AID2721]; assay type: functional; settings: Homo sapiens
Streptococcus = assay: Group A Streptococcus viability loss, dose response, counter-screen for streptokinase expression inhibitor project, luminescence, BacTiterGlo (AID 1915); assay type: functional, organism-based;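 also: potency for reduction of bacterial viability or growth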
Streptokinase A = molecular target: T8, Streptokinase A (Streptococcus pyogenes serotype M1, UniProt P10520); assay: S. pyogenes streptokinase expression inhibitors, potency, dose response, plasminogen activation absorbance, OD405 (AID 1914); assay type: functional, Streptococcus pyogenes M1 GAS;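 also: secreted streptokinase activity via plasminogen activation per viability signal from cell pellet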
T8 sequence (P10520 whole entry): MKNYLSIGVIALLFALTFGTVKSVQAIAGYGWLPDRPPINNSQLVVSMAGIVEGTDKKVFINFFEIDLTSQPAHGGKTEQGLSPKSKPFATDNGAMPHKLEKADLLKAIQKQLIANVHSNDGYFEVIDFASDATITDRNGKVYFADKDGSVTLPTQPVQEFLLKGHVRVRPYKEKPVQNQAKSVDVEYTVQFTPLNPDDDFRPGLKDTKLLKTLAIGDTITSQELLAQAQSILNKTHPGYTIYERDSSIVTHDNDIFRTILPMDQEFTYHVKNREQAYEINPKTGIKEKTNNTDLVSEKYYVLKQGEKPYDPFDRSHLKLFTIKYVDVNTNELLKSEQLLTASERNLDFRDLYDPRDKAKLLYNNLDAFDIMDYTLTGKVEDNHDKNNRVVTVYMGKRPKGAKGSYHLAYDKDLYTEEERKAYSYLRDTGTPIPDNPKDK

INS1 = assay: beta cell apoptosis inhibitors, cytokine rescue, dose response, luminescence, retest (AID 449756); assay type: functional, cell-based; settings: Rattus norvegicus;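 also: cell death triggered by IL-1 beta plus TNF-alpha plus IFN-gamma mixture; protective hits raise ATP signal compared with cytokine alone wells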
[14] = microbe, parasite or virus in culture; assay type: functional; settings: Mycobacterium tuberculosis
[15] = system: Streptococcus sp. 'group A'; assay: growth inhibition of control SK(-) GAS strain, dose response, counter-screen for streptokinase expression inhibitor project, luminescence, kanamycin, BacTiterGlo, confirmation (AID 1900); assay type: functional, organism-based

Sequence of E3 ubiquitin-protein ligase Mdm2 (Q00987 whole entry): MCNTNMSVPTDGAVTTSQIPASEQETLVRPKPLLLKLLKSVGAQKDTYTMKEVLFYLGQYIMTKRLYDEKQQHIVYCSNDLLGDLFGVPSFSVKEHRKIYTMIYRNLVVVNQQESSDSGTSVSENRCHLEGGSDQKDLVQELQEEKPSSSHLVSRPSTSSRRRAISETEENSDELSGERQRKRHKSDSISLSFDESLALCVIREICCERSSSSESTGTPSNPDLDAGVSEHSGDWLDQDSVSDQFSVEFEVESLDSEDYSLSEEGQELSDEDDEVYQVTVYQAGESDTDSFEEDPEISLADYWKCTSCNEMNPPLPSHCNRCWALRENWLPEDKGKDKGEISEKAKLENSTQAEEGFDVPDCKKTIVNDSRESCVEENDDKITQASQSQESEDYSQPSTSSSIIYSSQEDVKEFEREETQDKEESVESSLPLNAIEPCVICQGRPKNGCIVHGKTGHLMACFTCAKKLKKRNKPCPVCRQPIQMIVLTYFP
T2 sequence (P11940 whole entry): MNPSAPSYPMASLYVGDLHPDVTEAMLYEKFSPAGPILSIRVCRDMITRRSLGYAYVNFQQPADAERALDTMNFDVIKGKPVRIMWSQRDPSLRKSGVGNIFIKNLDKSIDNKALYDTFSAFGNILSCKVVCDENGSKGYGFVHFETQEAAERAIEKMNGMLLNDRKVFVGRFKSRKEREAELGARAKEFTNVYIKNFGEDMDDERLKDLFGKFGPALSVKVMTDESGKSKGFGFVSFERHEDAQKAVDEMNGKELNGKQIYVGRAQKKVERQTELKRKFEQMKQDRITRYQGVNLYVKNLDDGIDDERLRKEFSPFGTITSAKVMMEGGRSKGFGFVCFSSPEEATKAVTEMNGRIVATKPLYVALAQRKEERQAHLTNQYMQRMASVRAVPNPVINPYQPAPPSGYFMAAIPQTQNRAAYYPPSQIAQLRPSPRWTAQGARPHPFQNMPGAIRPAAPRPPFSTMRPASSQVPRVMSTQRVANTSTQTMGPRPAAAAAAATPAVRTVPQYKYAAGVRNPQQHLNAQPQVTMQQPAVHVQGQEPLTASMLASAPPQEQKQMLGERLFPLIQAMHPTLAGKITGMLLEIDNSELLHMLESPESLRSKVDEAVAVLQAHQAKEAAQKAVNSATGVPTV
T4 sequence (P41145 whole entry): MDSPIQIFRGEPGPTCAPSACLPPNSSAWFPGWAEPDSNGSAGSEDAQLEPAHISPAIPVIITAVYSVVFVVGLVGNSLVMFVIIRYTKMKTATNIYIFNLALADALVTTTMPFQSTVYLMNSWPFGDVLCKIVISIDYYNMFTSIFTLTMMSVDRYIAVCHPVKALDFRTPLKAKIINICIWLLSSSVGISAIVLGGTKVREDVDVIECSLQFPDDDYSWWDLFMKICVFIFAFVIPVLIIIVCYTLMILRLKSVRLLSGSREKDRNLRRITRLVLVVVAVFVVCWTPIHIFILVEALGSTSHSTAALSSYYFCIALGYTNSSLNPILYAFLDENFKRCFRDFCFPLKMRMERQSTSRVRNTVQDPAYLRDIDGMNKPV
Sequence of Eukaryotic translation initiation factor 4E (P63073 whole entry): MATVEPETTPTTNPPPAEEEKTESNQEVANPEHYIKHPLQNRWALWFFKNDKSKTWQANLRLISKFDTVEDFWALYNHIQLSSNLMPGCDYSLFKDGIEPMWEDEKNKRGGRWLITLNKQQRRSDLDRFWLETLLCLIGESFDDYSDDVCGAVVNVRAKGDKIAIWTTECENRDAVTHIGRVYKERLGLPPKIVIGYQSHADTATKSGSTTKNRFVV
Sequence of DNA damage-inducible transcript 3 protein (P35639 whole entry): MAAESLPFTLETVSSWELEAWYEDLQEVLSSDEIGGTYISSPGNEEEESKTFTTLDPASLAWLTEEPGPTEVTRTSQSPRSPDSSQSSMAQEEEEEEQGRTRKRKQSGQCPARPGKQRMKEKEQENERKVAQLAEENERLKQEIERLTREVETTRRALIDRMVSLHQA
Sequence of Beta-galactosidase (Q8VNN2 whole entry): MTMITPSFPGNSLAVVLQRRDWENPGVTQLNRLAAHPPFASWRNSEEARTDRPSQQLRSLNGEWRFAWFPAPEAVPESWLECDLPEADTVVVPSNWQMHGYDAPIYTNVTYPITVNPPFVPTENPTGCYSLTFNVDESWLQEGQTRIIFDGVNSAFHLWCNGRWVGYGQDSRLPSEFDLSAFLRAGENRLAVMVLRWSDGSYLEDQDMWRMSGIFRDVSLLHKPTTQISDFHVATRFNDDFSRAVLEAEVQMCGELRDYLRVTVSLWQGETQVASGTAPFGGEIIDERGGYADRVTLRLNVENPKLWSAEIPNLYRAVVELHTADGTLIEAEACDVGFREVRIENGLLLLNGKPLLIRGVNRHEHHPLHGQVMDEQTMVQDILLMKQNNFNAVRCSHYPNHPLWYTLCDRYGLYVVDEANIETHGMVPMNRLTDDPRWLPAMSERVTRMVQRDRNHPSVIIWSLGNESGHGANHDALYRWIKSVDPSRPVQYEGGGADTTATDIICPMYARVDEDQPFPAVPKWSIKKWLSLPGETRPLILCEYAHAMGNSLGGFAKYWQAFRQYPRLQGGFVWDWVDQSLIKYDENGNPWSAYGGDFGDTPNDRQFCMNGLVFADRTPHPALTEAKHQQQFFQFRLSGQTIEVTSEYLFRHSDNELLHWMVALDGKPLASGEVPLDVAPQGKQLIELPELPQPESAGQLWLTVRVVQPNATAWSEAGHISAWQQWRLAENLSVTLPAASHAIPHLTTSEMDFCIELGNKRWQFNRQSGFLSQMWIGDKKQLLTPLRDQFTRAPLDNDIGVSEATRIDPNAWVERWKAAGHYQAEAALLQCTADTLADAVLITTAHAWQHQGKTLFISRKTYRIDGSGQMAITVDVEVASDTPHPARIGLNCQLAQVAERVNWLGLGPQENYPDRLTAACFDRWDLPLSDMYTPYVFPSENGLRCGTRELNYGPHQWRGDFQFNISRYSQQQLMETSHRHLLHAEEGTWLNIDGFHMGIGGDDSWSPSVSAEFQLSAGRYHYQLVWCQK
Sequence of Cytochrome P450 2C9 (P11712 whole entry): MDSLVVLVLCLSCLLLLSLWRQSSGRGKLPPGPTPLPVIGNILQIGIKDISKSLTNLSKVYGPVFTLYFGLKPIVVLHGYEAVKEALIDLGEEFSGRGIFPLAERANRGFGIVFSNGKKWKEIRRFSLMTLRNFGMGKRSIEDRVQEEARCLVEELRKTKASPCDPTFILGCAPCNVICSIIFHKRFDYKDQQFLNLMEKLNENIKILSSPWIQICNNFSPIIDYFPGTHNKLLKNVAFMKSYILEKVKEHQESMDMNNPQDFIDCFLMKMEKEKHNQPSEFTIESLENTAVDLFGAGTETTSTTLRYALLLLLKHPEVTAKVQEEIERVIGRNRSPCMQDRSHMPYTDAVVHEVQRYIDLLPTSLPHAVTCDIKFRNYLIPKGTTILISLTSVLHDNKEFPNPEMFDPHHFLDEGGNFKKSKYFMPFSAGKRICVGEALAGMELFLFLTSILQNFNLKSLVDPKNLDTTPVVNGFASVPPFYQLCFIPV

## Cc1ccccc1NC(=N)Nc1ccccc1C
[1]
  IC50: 5.2 µM (active)
[2]
  IC50: > 66 µM (inactive)
[3]
  IC50: 19.8 µM (active)
Protein Rev
  IC50: 8.31 µM (active)

## O=C(C#Cc1ccccc1)c1ccc([N+](=O)[O-])cc1
Beta-galactosidase
  EC50: > 31.5 µM (inactive)
[4]
  IC50: 16.3 µM
[5]
  IC50: 9.68 µM (active)
[6]
  AC50: 1.38 µM (active)

## Cc1ccc(-c2nn(C)c(=O)c3ccccc23)cc1CNC(=O)Cn1nc(-c2ccccc2)c2ccccc2c1=O
[7]
  Absolute IC50 (CHOP): 10 µM
Cytochrome P450 2C9
  AC50: 11.2 µM (inconclusive)
Cytochrome P450 1A2
  AC50: 31.6 µM (inconclusive)
X-box-binding protein 1
  Absolute IC50 (XBP1): 10 µM

## CC(=O)Nc1ccc2nc3ccccc3nc2c1
[1]
  IC50: 5.86 µM (active)
[2]
  IC50: > 66 µM (inactive)
[3]
  IC50: 44.9 µM (inactive)
Protein Rev
  IC50: 14.8 µM (not active)

## Cc1ccc(NC2c3ncccc3C(=O)N2c2ccccc2C)cc1C (centres undefined)
[8]
  EC50: 16.5 µM (active)
H4
  EC50: 9.38 µM (active)
Hexokinase HKDC1
  IC50: 11.6 µM (active)
[9]
  EC50: 12 µM (active)
[10]
  IC50: 9.59 µM (active)

## COc1cccc(OC)c1C(=O)NNC(=O)c1cccc(COc2ccc3c(c2)CCC3)c1
[11]
  EC50: 0.0021 µM (active)

## COc1ccc(-c2csc(NC(CO)c3nc4ccccc4n3Cc3ccc(C)cc3)n2)cc1 (centres undefined)
[12]
  CC50: > 40 µM (active)

## O=C(CN1CCN(c2ncccn2)CC1)NCc1ccccc1
[11]
  EC50: 34 µM (not active)

## CCCc1nc2oc3c(NCC4CCCO4)ncnc3c2c2c1COC(C)(C)C2 (centres undefined)
Hexokinase HKDC1
  IC50: 33.2 µM (inactive)

## COc1ccc(CN2C(=O)c3cccnc3C2O)cc1 (centres undefined)
Hexokinase HKDC1
  IC50: 21.5 µM (inactive)

## O=C(O)c1ccc2c(c1)N(Cc1ccccc1F)C(=O)c1ccccc1[S+]2[O-] (centres undefined)
[11]
  EC50: 237 µM (not active)

## C(=N\Nc1ncnc2sc3c(c12)CCC3)/c1cccs1
[13]
  AC50: 5.38 µM (active)
Streptococcus
  EC50: 19.5 µM (active)
Streptokinase A
  EC50: > 150 µM (not active)
INS1
  AC50: 5.3 µM (active)
[14]
  CC50: 15.7 µM (active)
X-box-binding protein 1
  Absolute IC50 (XBP1): 10 µM
[15]
  EC50: 15.8 µM (active)
